Laboratory results published in publication PMC11985751, “Synthesis, bioactivity, and molecular docking studies: novel arylpiperazine derivatives as potential new-resistant AR antagonists” (Frontiers in Chemistry, 2025).

Legend:
[1] = test system: WPMY-1; test: In vitro cytotoxicity, CCK-8 assay (normal prostatic epithelial cells); type: cell-based; conditions: Homo sapiens; WPMY-1 normal prostatic epithelial cells, CCK-8, mean ± SD of three trials
Protocol: (§1) PC-3 and WPMY-1 cells were cultured in Dulbecco’s modiffcation Eagle’s medium (DMEM, Invitrogen, Carlsbad, CA, United States) supplemented with 10% fetal bovine serum (FBS, Hyclone, Logan, UT, United States), 100 U/mL penicillin and 0.1 mg/mL streptomycin (Invitrogen). DU145 cells were cultured in RPMI1640 media supplemented with 10% fetal bovine serum (FBS, Hyclone), 100 U/mL penicillin and 0.1 mg/mL streptomycin (Invitrogen). LNCaP cells were cultured in F12 media supplemented with 10% fetal bovine serum (FBS, Hyclone), 100 U/mL penicillin and 0.1 mg/mL streptomycin (Invitrogen). The cells were incubated at 37°C in a humidified atmosphere with 5% CO2([Chen et al., 2025]; [Jiang et al., 2024]). […]
(§2) The compound concentrations were set at 30, 15, 7.5, 3.75, 1.88, and 0.94 μmol/L. The absorbance (A) was measured at 450 nm using a microplate reader. […] All experiments were repeated three times under identical conditions, and the mean value was taken as the final result.
(§3) The cytotoxic activity of derivatives 5–24 against three human prostate cancer cell lines (PC-3, LNCaP, and DU145) and one type of human normal prostate epithelial cells was evaluated using the CCK-8 method.

[2] = test system: PC-3; test: In vitro cytotoxicity, CCK-8 assay; type: cell-based, human; conditions: CCK-8, mean ± SD of three trials
Protocol: as §1, §2, §3

[3] = test system: LNCaP; test: In vitro cytotoxicity, CCK-8 assay; type: cell-based, human; conditions: Homo sapiens, LNCaP, LNCaP cells, CCK-8, mean ± SD of three trials
Protocol: PC-3 and WPMY-1 cells were cultured in Dulbecco’s modiffcation Eagle’s medium (DMEM, Invitrogen, Carlsbad, CA, United States) supplemented with 10% fetal bovine serum (FBS, Hyclone, Logan, UT, United States), 100 U/mL penicillin and 0.1 mg/mL streptomycin (Invitrogen). DU145 cells were cultured in RPMI1640 media supplemented with 10% fetal bovine serum (FBS, Hyclone), 100 U/mL penicillin and 0.1 mg/mL streptomycin (Invitrogen). LNCaP cells were cultured in F12 media supplemented with 10% fetal bovine serum (FBS, Hyclone), 100 U/mL penicillin and 0.1 mg/mL streptomycin (Invitrogen). The cells were incubated at 37°C in a humidified atmosphere with 5% CO2([Chen et al., 2025]; [Jiang et al., 2024]).
The proliferative capacity of cells was evaluated through the implementation of a Cell Counting Kit-8 (CCK-8) assay, supplied by Dojindo (Japan), to quantify cellular growth. Post-transfection, cells were dispensed into a 96-well microplate at a density of 3 × 10^3 cells per well and incubated for intervals of 0, 24, 48, 72, 96, and 120 h. Following this, 10 μL of the CCK-8 solution was introduced into each well and the plates were returned to the incubator for an additional 2-h period at 37°C under 5% CO2 conditions. Absorbance readings at 450 nm were subsequently taken using an ELISA reader manufactured by Bio Tek (United States) ([Chen et al., 2022]; [Zhou et al., 2024]).
as §2, §3

[4] = test system: DU145; test: In vitro cytotoxicity, CCK-8 assay; type: cell-based; conditions: Homo sapiens, DU-145; DU145 cells, CCK-8, mean ± SD of three trials
Protocol: as §1, §2, §3

[5] = target: T1, AR-LBD (GST) (Rattus norvegicus, UniProt P15207); test: Fluorescence polarization, PolarScreen AR Competitor Assay, Green
T1 sequence (P15207 651-882 limits assumed): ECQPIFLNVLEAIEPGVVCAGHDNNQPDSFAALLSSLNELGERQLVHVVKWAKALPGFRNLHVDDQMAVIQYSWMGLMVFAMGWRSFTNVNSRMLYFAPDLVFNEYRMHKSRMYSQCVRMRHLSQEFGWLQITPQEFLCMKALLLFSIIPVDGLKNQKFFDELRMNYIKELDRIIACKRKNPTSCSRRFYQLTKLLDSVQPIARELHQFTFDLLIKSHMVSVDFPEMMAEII
Protocol: Brieffy, the assay entails titration of the test compound against a preformed complex of Fluormone™AL Green and the AR-LBD (GST). […] Data analysis for the ligand binding assays was performed using Prism software (GraphPad Software, Inc.).

[6] = target: T2, AR (Homo sapiens, UniProt P10275); test: AR reporter gene (luciferase) assay, co-treatment with 1 nM R1881; type: cell-based; conditions: 10 μM compound, inhibition rate as ratio to R1881 control, read-out: AR antagonistic activity% (10 μM)
T2 sequence (P10275 1-920): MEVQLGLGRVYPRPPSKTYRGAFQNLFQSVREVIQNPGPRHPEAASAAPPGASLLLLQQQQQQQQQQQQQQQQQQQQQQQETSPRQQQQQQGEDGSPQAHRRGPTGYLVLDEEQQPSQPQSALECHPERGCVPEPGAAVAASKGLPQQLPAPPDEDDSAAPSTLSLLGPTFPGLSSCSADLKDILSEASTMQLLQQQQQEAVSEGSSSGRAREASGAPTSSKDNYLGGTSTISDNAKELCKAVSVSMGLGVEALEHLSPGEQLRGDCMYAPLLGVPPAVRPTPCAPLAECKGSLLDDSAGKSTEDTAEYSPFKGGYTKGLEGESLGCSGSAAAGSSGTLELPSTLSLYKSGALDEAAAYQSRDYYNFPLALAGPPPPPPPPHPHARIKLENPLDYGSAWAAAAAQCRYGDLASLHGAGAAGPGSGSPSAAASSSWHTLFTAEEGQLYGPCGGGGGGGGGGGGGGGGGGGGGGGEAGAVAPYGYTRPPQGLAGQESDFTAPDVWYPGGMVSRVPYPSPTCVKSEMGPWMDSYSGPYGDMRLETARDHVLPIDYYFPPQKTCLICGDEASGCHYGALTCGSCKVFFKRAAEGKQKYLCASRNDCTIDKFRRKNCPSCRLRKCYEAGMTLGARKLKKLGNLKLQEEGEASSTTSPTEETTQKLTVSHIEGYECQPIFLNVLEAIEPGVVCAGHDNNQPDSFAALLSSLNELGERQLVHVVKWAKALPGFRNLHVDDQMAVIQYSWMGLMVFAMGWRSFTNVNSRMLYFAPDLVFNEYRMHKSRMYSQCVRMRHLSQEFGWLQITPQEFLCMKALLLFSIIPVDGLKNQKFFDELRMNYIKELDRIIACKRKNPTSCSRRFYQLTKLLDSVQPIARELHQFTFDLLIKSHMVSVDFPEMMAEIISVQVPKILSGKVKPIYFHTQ
Protocol: RLUs were measured using a luminometer (GloMaxTM 96-Microplate Luminometer, Promega) and are reported as the mean ± SEM of three individual experiments. For agonists, fold of induction = LUinduced/RLUuninduced. For antagonists, % of control = 100 × RLU (agonist + antagonist)/RLU (agonist alone). All RLUs were normalized against ffreffy RLUs/Renilla RLUs. Data are expressed as EC50/IC50 values in μM, and the IC50 of […] (μM) was calculated by plotting the data using nonlinear regression analysis in Graph-Pad Prism 5 software.

| SMILES | IC50 [1] | IC50 ([2]; Homo sapiens, PC-3, PC-3 cells) | IC50 [3] | IC50 [4] | IC50 [5] | IC50 ([2]; PC-3 cells) | activity at 10 µM [6] |
| --- | --- | --- | --- | --- | --- | --- | --- |
| c1ccc(OCCc2ccc(CN3CCN(C(c4ccccc4)c4ccccc4)CC3)cc2)cc1 [Compound 5, 1-benzhydryl-4-(4-(2-phenoxyethyl)benzyl)piperazine] | > 50 µM | 13.08 ± 0.12 µM | > 50 µM | > 50 µM | – | – | – |
| Fc1ccc(OCCc2ccc(CN3CCN(C(c4ccccc4)c4ccccc4)CC3)cc2)cc1 [Compound 6, 1-benzhydryl-4-(4-(2-(4-fluorophenoxy)ethyl)benzyl)piperazine] | > 50 µM | 34.39 ± 0.17 µM | > 50 µM | > 50 µM | – | – | – |
| Cc1cc(C)cc(OCCc2ccc(CN3CCN(C(c4ccccc4)c4ccccc4)CC3)cc2)c1 [Compound 7, 1-benzhydryl-4-(4-(2-(3,5-dimethylphenoxy)ethyl)benzyl)piperazine] | > 50 µM | < 5 µM | > 50 µM | 24.76 ± 0.21 µM | 2.15 ± 0.13 µM | 2.95 ± 0.04 µM | 50.1 ± 1.1% |
| N#Cc1ccc(OCCc2ccc(CN3CCN(C(c4ccccc4)c4ccccc4)CC3)cc2)cc1 [Compound 8, 4-(4-((4-benzhydrylpiperazin-1-yl)methyl)phenethoxy)benzonitrile] | 17.56 ± 0.12 µM | 12.54 ± 0.11 µM | 22.36 ± 0.2 µM | 19.83 ± 0.14 µM | – | – | – |
| Ic1ccc(OCCc2ccc(CN3CCN(C(c4ccccc4)c4ccccc4)CC3)cc2)cc1 [Compound 9, 1-benzhydryl-4-(4-(2-(4-iodophenoxy)ethyl)benzyl)piperazine] | > 50 µM | 15.2 ± 0.19 µM | > 50 µM | > 50 µM | – | – | – |
| Clc1ccc(OCCc2ccc(CN3CCN(C(c4ccccc4)c4ccccc4)CC3)cc2)cc1Cl [Compound 10, 1-benzhydryl-4-(4-(2-(3,4-dichlorophenoxy)ethyl)benzyl)piperazine] | > 50 µM | 17.44 ± 0.07 µM | > 50 µM | > 50 µM | – | – | – |
| Clc1cc(Cl)cc(OCCc2ccc(CN3CCN(C(c4ccccc4)c4ccccc4)CC3)cc2)c1 [Compound 11, 1-benzhydryl-4-(4-(2-(3,5-dichlorophenoxy)ethyl)benzyl)piperazine] | > 50 µM | – | > 50 µM | 17.43 ± 0.04 µM | 2.01 ± 0.15 µM | – | 51.2 ± 1.3% |
| Cc1cccc(OCCc2ccc(CN3CCN(C(c4ccccc4)c4ccccc4)CC3)cc2)c1 [Compound 12, 1-benzhydryl-4-(4-(2-(m-tolyloxy)ethyl)benzyl)piperazine] | 28.54 ± 0.16 µM | > 50 µM | 19.6 ± 0.23 µM | 34.43 ± 0.15 µM | – | – | – |
| Clc1ccccc1OCCc1ccc(CN2CCN(C(c3ccccc3)c3ccccc3)CC2)cc1 [Compound 13, 1-benzhydryl-4-(4-(2-(2-chlorophenoxy)ethyl)benzyl)piperazine] | 17.83 ± 0.17 µM | 15.35 ± 0.08 µM | 12.2 ± 0.25 µM | 21.24 ± 0.16 µM | – | – | – |
